{"source": "PubChem BioAssay (NCI)", "test_in_all_cases": "growth of human tumour cells (NCI), 48 h", "key": {"HOP-92 NSCLC": {"tested_on": "HOP-92 NSCLC"}, "SN12C renal": {"tested_on": "SN12C renal"}, "RPMI-8226 leukemia": {"tested_on": "RPMI-8226 leukemia"}, "SR leukemia": {"tested_on": "SR leukemia"}, "SW-620 colon": {"tested_on": "SW-620 colon"}, "HS 578T breast": {"tested_on": "HS 578T breast"}, "HCT-15 colon": {"tested_on": "HCT-15 colon"}, "LOX IMVI melanoma": {"tested_on": "LOX IMVI melanoma"}, "MCF7 breast": {"tested_on": "MCF7 breast"}, "MDA-N": {"tested_on": "MDA-N"}, "PC-3 prostate": {"tested_on": "PC-3 prostate"}, "EKVX NSCLC": {"tested_on": "EKVX NSCLC"}, "SF-295 CNS": {"tested_on": "SF-295 CNS"}, "UACC-62 melanoma": {"tested_on": "UACC-62 melanoma"}, "UACC-257 melanoma": {"tested_on": "UACC-257 melanoma"}, "SK-MEL-2 melanoma": {"tested_on": "SK-MEL-2 melanoma"}, "T-47D breast": {"tested_on": "T-47D breast"}, "MDA-MB-231 breast": {"tested_on": "MDA-MB-231 breast"}, "A549 NSCLC": {"tested_on": "A549 NSCLC"}, "COLO 205 colon": {"tested_on": "COLO 205 colon"}, "K-562 leukemia": {"tested_on": "K-562 leukemia"}, "DU-145 prostate": {"tested_on": "DU-145 prostate"}, "MOLT-4 leukemia": {"tested_on": "MOLT-4 leukemia"}, "NCI-H522 lung": {"tested_on": "NCI-H522 lung"}, "SK-MEL-5 melanoma": {"tested_on": "SK-MEL-5 melanoma"}, "ACHN renal": {"tested_on": "ACHN renal"}, "SNB-19 CNS": {"tested_on": "SNB-19 CNS"}, "KM12 colon": {"tested_on": "KM12 colon"}, "786-0 renal": {"tested_on": "786-0 renal"}, "MDA-MB-435": {"tested_on": "MDA-MB-435"}, "OVCAR-4 ovarian": {"tested_on": "OVCAR-4 ovarian"}, "HOP-62 NSCLC": {"tested_on": "HOP-62 NSCLC"}, "CCRF-CEM leukemia": {"tested_on": "CCRF-CEM leukemia"}, "OVCAR-5 ovarian": {"tested_on": "OVCAR-5 ovarian"}, "A498 renal": {"tested_on": "A498 renal"}, "NCI/ADR-RES ovarian": {"tested_on": "NCI/ADR-RES ovarian"}, "SK-OV-3 ovarian": {"tested_on": "SK-OV-3 ovarian"}, "M14 melanoma": {"tested_on": "M14 melanoma"}, "BT-549 breast": {"tested_on": "BT-549 breast"}, "NCI-H226 lung": {"tested_on": "NCI-H226 lung"}, "U251 CNS": {"tested_on": "U251 CNS"}, "HCT-116 colon": {"tested_on": "HCT-116 colon"}, "HCC-2998 colon": {"tested_on": "HCC-2998 colon"}, "SK-MEL-28 melanoma": {"tested_on": "SK-MEL-28 melanoma"}, "SF-268 CNS": {"tested_on": "SF-268 CNS"}, "IGROV1 ovarian": {"tested_on": "IGROV1 ovarian"}, "CAKI-1 renal": {"tested_on": "CAKI-1 renal"}, "NCI-H23 lung": {"tested_on": "NCI-H23 lung"}, "UO-31 renal": {"tested_on": "UO-31 renal"}, "RXF 393 renal": {"tested_on": "RXF 393 renal"}, "TK-10 renal": {"tested_on": "TK-10 renal"}, "MALME-3M melanoma": {"tested_on": "MALME-3M melanoma"}, "HL-60(TB) leukemia": {"tested_on": "HL-60(TB) leukemia"}, "NCI-H460 lung": {"tested_on": "NCI-H460 lung"}}, "note": "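All cell lines were grown in 96-well plates and treated with compound for 48 hours. TGI marks complete inhibition of growth.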", "data": [{"smiles": "Cc1ccc(-c2nc3cc(N4CCN(C)CC4)c(F)cc3[nH]2)cc1", "values": [{"measurement": "TGI", "setting": "HOP-92 NSCLC", "result": "> 100", "unit": "µM"}, {"measurement": "TGI", "setting": "SN12C renal", "result": "> 100", "unit": "µM"}, {"measurement": "TGI", "setting": "RPMI-8226 leukemia", "result": 75.5, "unit": "µM"}, {"measurement": "TGI", "setting": "SR leukemia", "result": "> 100", "unit": "µM"}, {"measurement": "TGI", "setting": "SW-620 colon", "result": "> 100", "unit": "µM"}, {"measurement": "TGI", "setting": "HS 578T breast", "result": 29.1, "unit": "µM"}, {"measurement": "TGI", "setting": "HCT-15 colon", "result": 21, "unit": "µM"}, {"measurement": "TGI", "setting": "LOX IMVI melanoma", "result": 94.3, "unit": "µM"}, {"measurement": "TGI", "setting": "MCF7 breast", "result": 30.3, "unit": "µM"}, {"measurement": "TGI", "setting": "MDA-N", "result": 95.7, "unit": "µM"}, {"measurement": "TGI", "setting": "PC-3 prostate", "result": "> 100", "unit": "µM"}, {"measurement": "TGI", "setting": "EKVX NSCLC", "result": 70, "unit": "µM"}, {"measurement": "TGI", "setting": "SF-295 CNS", "result": 30.4, "unit": "µM"}, {"measurement": "TGI", "setting": "UACC-62 melanoma", "result": 31.3, "unit": "µM"}, {"measurement": "TGI", "setting": "UACC-257 melanoma", "result": 34.3, "unit": "µM"}, {"measurement": "TGI", "setting": "SK-MEL-2 melanoma", "result": 32, "unit": "µM"}, {"measurement": "TGI", "setting": "T-47D breast", "result": 50.7, "unit": "µM"}, {"measurement": "TGI", "setting": "MDA-MB-231 breast", "result": "> 100", "unit": "µM"}, {"measurement": "TGI", "setting": "A549 NSCLC", "result": 49, "unit": "µM"}, {"measurement": "TGI", "setting": "COLO 205 colon", "result": 34.5, "unit": "µM"}, {"measurement": "TGI", "setting": "K-562 leukemia", "result": "> 100", "unit": "µM"}, {"measurement": "TGI", "setting": "DU-145 prostate", "result": "> 100", "unit": "µM"}, {"measurement": "TGI", "setting": "MOLT-4 leukemia", "result": "> 100", "unit": "µM"}, {"measurement": "TGI", "setting": "NCI-H522 lung", "result": 31.9, "unit": "µM"}, {"measurement": "TGI", "setting": "SK-MEL-5 melanoma", "result": 25.1, "unit": "µM"}, {"measurement": "TGI", "setting": "ACHN renal", "result": 70.5, "unit": "µM"}, {"measurement": "TGI", "setting": "SNB-19 CNS", "result": 58.9, "unit": "µM"}, {"measurement": "TGI", "setting": "KM12 colon", "result": 27, "unit": "µM"}, {"measurement": "TGI", "setting": "786-0 renal", "result": 39, "unit": "µM"}, {"measurement": "TGI", "setting": "MDA-MB-435", "result": 48.1, "unit": "µM"}, {"measurement": "TGI", "setting": "OVCAR-4 ovarian", "result": 59.3, "unit": "µM"}, {"measurement": "TGI", "setting": "HOP-62 NSCLC", "result": 29.3, "unit": "µM"}, {"measurement": "TGI", "setting": "CCRF-CEM leukemia", "result": "> 100", "unit": "µM"}, {"measurement": "TGI", "setting": "OVCAR-5 ovarian", "result": 60.2, "unit": "µM"}, {"measurement": "TGI", "setting": "A498 renal", "result": 91.4, "unit": "µM"}, {"measurement": "TGI", "setting": "NCI/ADR-RES ovarian", "result": "> 100", "unit": "µM"}, {"measurement": "TGI", "setting": "SK-OV-3 ovarian", "result": 57.7, "unit": "µM"}, {"measurement": "TGI", "setting": "M14 melanoma", "result": 31, "unit": "µM"}, {"measurement": "TGI", "setting": "BT-549 breast", "result": 55.8, "unit": "µM"}, {"measurement": "TGI", "setting": "NCI-H226 lung", "result": 38.3, "unit": "µM"}, {"measurement": "TGI", "setting": "U251 CNS", "result": "> 100", "unit": "µM"}, {"measurement": "TGI", "setting": "HCT-116 colon", "result": 50, "unit": "µM"}, {"measurement": "TGI", "setting": "HCC-2998 colon", "result": 24.6, "unit": "µM"}, {"measurement": "TGI", "setting": "SK-MEL-28 melanoma", "result": 61.3, "unit": "µM"}, {"measurement": "TGI", "setting": "SF-268 CNS", "result": 43.6, "unit": "µM"}, {"measurement": "TGI", "setting": "IGROV1 ovarian", "result": 90, "unit": "µM"}, {"measurement": "TGI", "setting": "CAKI-1 renal", "result": "> 100", "unit": "µM"}, {"measurement": "TGI", "setting": "NCI-H23 lung", "result": "> 100", "unit": "µM"}, {"measurement": "TGI", "setting": "UO-31 renal", "result": 27.4, "unit": "µM"}, {"measurement": "TGI", "setting": "RXF 393 renal", "result": 38.4, "unit": "µM"}, {"measurement": "TGI", "setting": "TK-10 renal", "result": "> 100", "unit": "µM"}, {"measurement": "TGI", "setting": "MALME-3M melanoma", "result": 31.2, "unit": "µM"}, {"measurement": "TGI", "setting": "HL-60(TB) leukemia", "result": 46, "unit": "µM"}, {"measurement": "TGI", "setting": "NCI-H460 lung", "result": 32.6, "unit": "µM"}]}]}
